Test results taken from ChEMBL document CHEMBL5230104, “Systemic review on B-RafV600E mutation as potential therapeutic target for the treatment of cancer” (Eur J Med Chem, 2020).

Legend:
WM 266-4 [1] = experiment: Antiproliferative activity against human WM266-4 cells incubated for 24 hrs by MTT assay; type: functional, cell-based; details: WM 266-4, 24 h
[2] = Inhibition of full length GST tagged mouse B-Raf V600E mutant measured after 25 mins by ELISA method
MDA-MB-453 = experiment: Antiproliferative activity against human MDA-MB-453 cells; type: functional, cell-based
HepG2 = experiment: Antiproliferative activity against human HepG2 cells; type: functional, cell-based
[3] = target: T1, Serine/threonine-protein kinase B-raf (Homo sapiens, UniProt P15056, V600E); experiment: (§1) Inhibition of B-Raf V600E mutant (unknown origin)
Target sequence in this assay (P15056 whole entry V600E): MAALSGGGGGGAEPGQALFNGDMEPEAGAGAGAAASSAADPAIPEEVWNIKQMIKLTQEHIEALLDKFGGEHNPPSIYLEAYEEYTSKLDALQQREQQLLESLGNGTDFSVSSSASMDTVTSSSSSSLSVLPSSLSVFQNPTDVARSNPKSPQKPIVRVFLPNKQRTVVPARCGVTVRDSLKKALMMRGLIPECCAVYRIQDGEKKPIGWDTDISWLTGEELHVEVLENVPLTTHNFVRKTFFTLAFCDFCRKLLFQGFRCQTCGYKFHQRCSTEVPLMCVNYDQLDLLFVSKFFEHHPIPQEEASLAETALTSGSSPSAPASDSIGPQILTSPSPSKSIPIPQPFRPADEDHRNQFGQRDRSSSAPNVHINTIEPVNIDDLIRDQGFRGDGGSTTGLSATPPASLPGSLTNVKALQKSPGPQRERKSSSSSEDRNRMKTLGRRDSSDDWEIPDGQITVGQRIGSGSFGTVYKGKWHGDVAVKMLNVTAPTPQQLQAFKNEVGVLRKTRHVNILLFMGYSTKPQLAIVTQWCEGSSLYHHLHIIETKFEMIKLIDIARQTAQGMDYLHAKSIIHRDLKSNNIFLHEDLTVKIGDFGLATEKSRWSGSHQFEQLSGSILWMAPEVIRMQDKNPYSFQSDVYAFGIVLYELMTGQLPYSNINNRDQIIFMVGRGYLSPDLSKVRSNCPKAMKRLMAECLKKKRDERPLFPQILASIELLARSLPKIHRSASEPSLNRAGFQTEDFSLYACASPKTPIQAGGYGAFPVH

SW480 = experiment: Antiproliferative activity against human SW480 cells; type: functional, cell-based
A-375 [4] = experiment: Antiproliferative activity against human A-375 cells incubated for 48 hrs by MTT based colorimetric method; type: functional, cell-based; details: A-375, 48 h
WM 266-4 [5] = experiment: Antiproliferative activity against human WM266-4 cells incubated for 48 hrs by MTT based colorimetric method; type: functional, cell-based; details: WM 266-4, 48 h
[6] = Inhibition of full length GST tagged mouse B-Raf V600E mutant preincubated for 1 hr and measured after 25 mins in presence of ATP
[7] = target: Serine/threonine-protein kinase B-raf (Mus musculus, UniProt P28028); experiment: Inhibition of full length GST tagged mouse wild type B-Raf preincubated for 1 hr and measured after 25 mins in presence of ATP
Sequence of Serine/threonine-protein kinase B-raf (Mus musculus, UniProt P28028) (P28028 whole entry, the tested form may be a part): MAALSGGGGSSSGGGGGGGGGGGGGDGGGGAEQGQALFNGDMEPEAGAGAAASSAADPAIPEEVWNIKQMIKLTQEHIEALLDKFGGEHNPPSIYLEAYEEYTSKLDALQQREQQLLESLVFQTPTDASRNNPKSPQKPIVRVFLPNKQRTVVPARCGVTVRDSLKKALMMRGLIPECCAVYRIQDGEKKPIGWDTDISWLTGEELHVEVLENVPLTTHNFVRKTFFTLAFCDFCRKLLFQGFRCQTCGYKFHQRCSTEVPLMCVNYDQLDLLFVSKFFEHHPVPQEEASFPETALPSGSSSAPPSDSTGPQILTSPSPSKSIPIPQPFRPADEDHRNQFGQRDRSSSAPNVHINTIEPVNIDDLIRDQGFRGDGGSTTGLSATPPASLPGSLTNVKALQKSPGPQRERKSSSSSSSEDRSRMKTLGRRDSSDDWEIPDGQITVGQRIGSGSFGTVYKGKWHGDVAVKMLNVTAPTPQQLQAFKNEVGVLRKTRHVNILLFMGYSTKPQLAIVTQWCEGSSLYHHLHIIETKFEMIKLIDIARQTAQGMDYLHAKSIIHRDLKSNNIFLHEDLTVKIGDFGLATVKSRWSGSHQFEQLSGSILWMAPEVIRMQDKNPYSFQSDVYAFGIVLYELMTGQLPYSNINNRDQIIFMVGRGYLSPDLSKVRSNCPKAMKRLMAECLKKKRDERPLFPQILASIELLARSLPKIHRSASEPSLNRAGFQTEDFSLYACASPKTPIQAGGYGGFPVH

[8] = target: T2, Serine/threonine-protein kinase B-raf (Homo sapiens, UniProt P15056); experiment: Inhibition of human wild type B-Raf (433 to 726 residues) expressed in Escherichia coli BL21 cells by ELISA based assay
T2 sequence (P15056 whole entry, the tested form may be a part): as the sequence (P15056 whole entry V600E) above, with E600V counted along it

[9] = target: T1, Serine/threonine-protein kinase B-raf; experiment: Inhibition of human B-Raf V600E mutant (433 to 726 residues) expressed in Escherichia coli BL21 cells by ELISA based assay
Target sequence in this assay (P15056 2-766 V600E limits assumed): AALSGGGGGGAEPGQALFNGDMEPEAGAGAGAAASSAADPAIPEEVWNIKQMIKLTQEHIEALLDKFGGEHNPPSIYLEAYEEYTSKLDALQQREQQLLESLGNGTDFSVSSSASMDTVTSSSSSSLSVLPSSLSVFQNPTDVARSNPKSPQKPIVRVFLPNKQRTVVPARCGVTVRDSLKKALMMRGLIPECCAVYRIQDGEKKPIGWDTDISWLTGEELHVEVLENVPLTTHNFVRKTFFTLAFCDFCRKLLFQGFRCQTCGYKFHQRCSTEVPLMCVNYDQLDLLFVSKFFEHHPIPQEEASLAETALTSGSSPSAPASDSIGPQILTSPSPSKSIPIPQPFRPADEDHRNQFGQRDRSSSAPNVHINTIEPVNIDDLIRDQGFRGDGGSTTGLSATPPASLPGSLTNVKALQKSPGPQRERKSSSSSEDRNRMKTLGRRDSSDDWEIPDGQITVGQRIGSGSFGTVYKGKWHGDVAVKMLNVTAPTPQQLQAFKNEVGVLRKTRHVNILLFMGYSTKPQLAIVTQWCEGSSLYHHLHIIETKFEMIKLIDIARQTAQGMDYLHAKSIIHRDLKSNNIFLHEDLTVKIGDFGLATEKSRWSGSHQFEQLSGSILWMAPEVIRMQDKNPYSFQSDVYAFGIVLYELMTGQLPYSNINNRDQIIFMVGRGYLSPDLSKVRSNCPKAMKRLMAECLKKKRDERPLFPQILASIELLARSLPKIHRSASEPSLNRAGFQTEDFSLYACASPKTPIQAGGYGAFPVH

A-375 [10] = experiment: Antitumor activity against human A-375 cells xenografted in mouse model assessed as tumor growth inhibition at 50 mg/kg relative to control; type: functional; parameters: scale not given: the % may be the effect or the level left
A-375 [11] = experiment: Cytotoxicity against human A-375 cells; type: functional, cell-based
HUVEC = experiment: Cytotoxicity against HUVEC cells; type: functional, cell-based; details: Homo sapiens
[12] = tested on: Serine/threonine-protein kinase B-raf (Homo sapiens), P15056 [V600E]; experiment: as §1
Sequence of Serine/threonine-protein kinase B-raf (Homo sapiens), P15056 [V600E] (P15056 whole entry V600E): as the sequence (P15056 whole entry V600E) above

[13] = target: T2, Serine/threonine-protein kinase B-raf; experiment: Inhibition of B-Raf (unknown origin)
HT-29 [14] = experiment: Antiproliferative activity against human HT-29 cells assessed as cell growth proliferation; type: functional, cell-based
A-375 [15] = experiment: Antiproliferative activity against human A-375 cells; type: functional, cell-based
[16] = target: T1, Serine/threonine-protein kinase B-raf; experiment: Inhibition of B-Raf V600E mutant (unknown origin) incubated for 1 hr by ELISA based luminescence assay
Target sequence in this assay (P15056 2-766 V600E limits assumed): as the sequence (P15056 2-766 V600E limits assumed) above

[17] = target: T2, Serine/threonine-protein kinase B-raf; experiment: Inhibition of wild type B-Raf (unknown origin) incubated for 1 hr by ELISA based luminescence assay
[18] = target: T2, Serine/threonine-protein kinase B-raf; experiment: Inhibition of wild type B-Raf (unknown origin) by ELISA based assay
COLO 205 = experiment: Antiproliferative activity against human COLO 205 cells assessed as inhibition of cell growth incubated for 72 hrs by MTT assay; type: functional, cell-based; details: COLO 205, 72 h
A-375 [19] = experiment: Antiproliferative activity against human A-375 cells assessed as inhibition of cell growth incubated for 72 hrs by MTT assay; type: functional, cell-based; details: A-375, 72 h
HT-29 [20] = experiment: Antiproliferative activity against human HT-29 cells assessed as inhibition of cell growth incubated for 72 hrs by MTT assay; type: functional, cell-based; details: HT-29, 72 h
[21] = target: T1, Serine/threonine-protein kinase B-raf; experiment: Inhibition of B-Raf V600E mutant (unknown origin) by ELISA based assay
Target sequence in this assay (P15056 2-766 V600E limits assumed): as above

HT-29 [22] = experiment: Antiproliferative activity against human HT-29 cells incubated for 48 hrs by MTT assay; type: functional, cell-based; details: HT-29, 48 h
A549 = experiment: Antiproliferative activity against human A549 cells incubated for 48 hrs by MTT assay; type: functional, cell-based; details: A549, 48 h
PC-3 [23] = experiment: Antiproliferative activity against human PC-3 cells incubated for 48 hrs by MTT assay; type: functional, cell-based; details: PC-3, 48 h
A-375 [24] = experiment: Antiproliferative activity against human A-375 cells incubated for 48 hrs by MTT assay; type: functional, cell-based; details: A-375, 48 h
[25] = tested on: Serine/threonine-protein kinase B-raf (Homo sapiens), P15056 [V600E]; experiment: Inhibition of B-Raf V600E mutant (unknown origin) at 10 uM relative to control
SK-MEL-5 = experiment: Anticancer activity against human SK-MEL-5 cells assessed as cell growth proliferation; type: functional, cell-based
SW-620 = experiment: Anticancer activity against human SW620 cells assessed as cell growth proliferation; type: functional, cell-based
UO-31 = experiment: Anticancer activity against human UO-31 cells assessed as cell growth proliferation; type: functional, cell-based
MDA-MB-468 = experiment: Anticancer activity against human MDA-MB-468 cells assessed as cell growth proliferation; type: functional, cell-based
SR = experiment: Anticancer activity against human SR cells assessed as cell growth proliferation; type: functional, cell-based
NCI-H522 = experiment: Anticancer activity against human NCI-H522 cells assessed as cell growth proliferation; type: functional, cell-based
HT-29 [26] = experiment: Anticancer activity against human HT-29 cells assessed as cell growth proliferation; type: functional, cell-based
HOP-92 = experiment: Anticancer activity against human HOP-92 cells assessed as cell growth proliferation; type: functional, cell-based
A-375 [27] = experiment: Anticancer activity against human A-375 cells assessed as cell growth proliferation; type: functional, cell-based
PC-3 [28] = experiment: Anticancer activity against human PC-3 cells assessed as cell growth proliferation; type: functional, cell-based
OVCAR-3 = experiment: Anticancer activity against human OVCAR-3 cells assessed as cell growth proliferation; type: functional, cell-based
SNB-75 = experiment: Anticancer activity against human SNB-75 cells assessed as cell growth proliferation; type: functional, cell-based
[29] = target: T2, Serine/threonine-protein kinase B-raf; experiment: Inhibition of wild type B-Raf (unknown origin)
SK-OV-3 [30] = experiment: Antitumor activity against human SK-OV-3 cells xenografted in mouse model assessed as reduction in tumor growth measured after 40 days relative to control; type: functional; parameters: scale not given: the % may be the effect or the level left; details: time 40 day
SK-OV-3 [31] = experiment: Antiproliferative activity against human SK-OV-3 cells; type: functional, cell-based
[32] = Antiproliferative activity against human WM1361 cells incubated for 24 hrs by MTT assay; type: functional, cell-based; details: WM1361, 24 h
A-375 [33] = experiment: Antiproliferative activity against human A-375 cells incubated for 24 hrs by MTT assay; type: functional, cell-based; details: A-375, 24 h

Q: Which results are given for `Oc1ccccc1C1CC(c2ccc(Cl)c(Cl)c2)=NN1c1ccccc1` (centres undefined)?
A: IC50 (WM 266-4 [1]): 1750 nM; IC50 [2]: 150 nM

Q: Which results are given for `CNC(=O)c1cc(Cn2ccc3cc(NC(=O)Nc4ccc(Cl)c(C(F)(F)F)c4)ccc32)ccn1`?
A: IC50 (MDA-MB-453): 21900 nM; IC50 (HepG2): 6630 nM; IC50 [3]: 510 nM; IC50 (SW480): 13500 nM

Q: For `COc1ccc(-n2cc(Nc3cccc4[nH]ncc34)cn2)cc1`, which IC50 (A-375 [4]) is on record?
A: 340 nM

Q: What about the IC50 (WM 266-4 [5]) of the same compound?
A: 380 nM

Q: What about the IC50 [6] of the same compound?
A: 40 nM

Q: And the IC50 [7]?
A: 770 nM

Q: With `COC(=O)c1ccccc1-c1ccc(/C=C/[N+](=O)[O-])o1` as the compound, how does the IC50 [8] read?
A: 1380 nM

Q: What about the IC50 [9] of the same compound?
A: 1960 nM

Q: Which results are given for `CNC(=O)c1nc2ccc(C(=O)c3cccc(NC(=O)Nc4ccc(Cl)c(C(F)(F)F)c4)c3)cc2[nH]1`?
A: Activity (A-375 [10]): 17.99%; IC50 (A-375 [11]): 3620 nM; IC50 (HUVEC): 12500 nM; IC50 [12]: 57.8 nM

Q: For `COc1ccc(-c2n[nH]c(/N=C/c3ccc(O)c(OC)c3)n2)cc1`, which IC50 [13] is on record?
A: 700 nM

Q: And the IC50 (HT-29 [14])?
A: 1300 nM

Q: For `Cc1nn(-c2ccccc2)c(Cl)c1Nc1ccc(C(F)(F)F)cc1`, which IC50 (A-375 [15]) is on record?
A: 810 nM

Q: And the IC50 [3]?
A: 66 nM

Q: Which results are given for `Cc1cnc2[nH]cc(C(=O)c3c(F)ccc(N[S+]([O-])C(C)C)c3F)c2c1` (centres undefined)?
A: IC50 [16]: 54 nM; IC50 [17]: 200 nM

Q: With `CCC[S+]([O-])Nc1ccc(F)c(Cc2c[nH]c3nc(N)n(C)c(=O)c23)c1F` (centres undefined) as the compound, how does the IC50 [18] read?
A: 440 nM

Q: What about the IC50 (COLO 205) of the same compound?
A: 1640 nM

Q: And the IC50 (A-375 [19])?
A: 800 nM

Q: What about the IC50 (HT-29 [20]) of the same compound?
A: 550 nM

Q: And the IC50 [21]?
A: 50 nM

Q: Which IC50 (HT-29 [22]) does the source give for `Cn1ncc2c(Oc3ccc(NC(=O)Nc4ccc(Cl)c(C(F)(F)F)c4)cc3)ncnc21` here?
A: 14700 nM

Q: What about the IC50 (A549) of the same compound?
A: 12500 nM

Q: What about the IC50 (PC-3 [23]) of the same compound?
A: 23400 nM

Q: What about the IC50 (A-375 [24]) of the same compound?
A: 12200 nM

Q: With `CCN1CCN(CCC(=O)Nc2cccc(-n3cc(-c4ccncc4)c(-c4ccc(Cl)c(OC)c4)n3)c2)CC1` as the compound, how does the inhibition [25] read?
A: 100%

Q: And the IC50 (SK-MEL-5)?
A: 510 nM

Q: What about the IC50 (SW-620) of the same compound?
A: 340 nM

Q: And the IC50 (UO-31)?
A: 920 nM

Q: And the IC50 (MDA-MB-468)?
A: 270 nM

Q: What about the IC50 (SR) of the same compound?
A: 430 nM

Q: What about the IC50 (NCI-H522) of the same compound?
A: 270 nM

Q: And the IC50 (HT-29 [26])?
A: 380 nM

Q: And the IC50 (HOP-92)?
A: 780 nM

Q: What about the IC50 (A-375 [27]) of the same compound?
A: 820 nM

Q: What about the IC50 (PC-3 [28]) of the same compound?
A: 450 nM

Q: What about the IC50 (OVCAR-3) of the same compound?
A: 350 nM

Q: What about the IC50 (SNB-75) of the same compound?
A: 390 nM

Q: For `O=S(=O)(Nc1ccc(F)c(Nc2ccccc2-c2ncnc3[nH]cnc23)c1F)c1ccoc1`, which IC50 [29] is on record?
A: 2.2 nM

Q: What about the IC50 [3] of the same compound?
A: 2 nM

Q: For `COC[C@@H]1C[C@H]2[C@@H]3CCc4cc(O)ccc4[C@H]3CC[C@]2(C)C1NN` (some centres undefined), which IC50 [29] is on record?
A: 4320 nM

Q: What about the Activity (SK-OV-3 [30]) of the same compound?
A: 93.61%

Q: And the IC50 (SK-OV-3 [31])?
A: 4230 nM

Q: And the IC50 [3]?
A: 41 nM

Q: With `Cc1ccc(-n2cc(NC(=O)c3c[nH]c4ccccc34)cn2)cc1` as the compound, how does the IC50 [32] read?
A: 10000 nM

Q: What about the IC50 (A-375 [33]) of the same compound?
A: 930 nM

Q: And the IC50 [6]?
A: 100 nM

Q: And the IC50 [7]?
A: 920 nM
